Results published in ChEMBL document CHEMBL1151757, “Synthesis, radiosynthesis, and biological evaluation of fluorine-18-labeled 2beta-carbo(fluoroalkoxy)-3beta-(3'-((Z)-2-haloethenyl)phenyl)nortropanes: candidate radioligands for in vivo imaging of the serotonin transporter with positron emission tomography” (J Med Chem, 2008).

Legend:
[1] = test system: Midbrain; test: Drug uptake in anesthetized cynomolgus monkey brain midbrain after 65 mins postinjection; assay type: ADME, organism-based, Macaca fascicularis; design: unit not given here; settings: in vivo
[2] = test system: Thalamus; test: Drug uptake in anesthetized cynomolgus monkey brain thalamus after 105 mins postinjection; assay type: ADME, organism-based, Macaca fascicularis; design: unit not given here; settings: in vivo, 1.75 h
[3] = test system: Medulla; test: Drug uptake in anesthetized cynomolgus monkey brain medulla after 225 mins postinjection; assay type: ADME, organism-based, Macaca fascicularis; settings: in vivo, 3.75 h
[4] = test system: Pons; test: Drug uptake in anesthetized cynomolgus monkey brain pons after 65 mins postinjection; assay type: ADME, organism-based, Macaca fascicularis; settings: in vivo
[5] = test system: Medulla; test: Drug uptake in anesthetized cynomolgus monkey brain medulla after 2.5 mins postinjection; assay type: ADME, organism-based, Macaca fascicularis; settings: in vivo
[6] = Drug uptake in anesthetized cynomolgus monkey brain occipital lobe after 215 mins postinjection; assay type: ADME, organism-based, Macaca fascicularis; settings: in vivo
[7] = test system: Caudate; test: Drug uptake in anesthetized cynomolgus monkey brain caudate after 95 mins postinjection; assay type: ADME, organism-based, Macaca fascicularis, Caudate nucleus; settings: in vivo
[8] = test system: Caudate; test: Drug uptake in anesthetized cynomolgus monkey brain caudate after 75 mins postinjection; assay type: ADME, organism-based, Macaca fascicularis, Caudate nucleus; settings: in vivo, 1.25 h
[9] = test system: Caudate; test: Drug uptake in anesthetized cynomolgus monkey brain caudate after 45 mins postinjection; assay type: ADME, organism-based, Macaca fascicularis, Caudate nucleus; settings: in vivo, 0.75 h
[10] = Ratio of drug uptake in occipital lobe to cerebellum in anesthetized cynomolgus monkey after 12.5 mins postinjection; assay type: ADME, organism-based, Macaca fascicularis; settings: in vivo
[11] = Ratio of drug uptake in putamen to cerebellum in anesthetized cynomolgus monkey after 75 mins postinjection; assay type: ADME, organism-based, Macaca fascicularis; settings: in vivo, 1.25 h
[12] = test system: Caudate; test: Drug uptake in anesthetized cynomolgus monkey brain caudate after 18.5 mins postinjection; assay type: ADME, organism-based, Macaca fascicularis, Caudate nucleus; settings: in vivo
[13] = test system: Thalamus; test: Drug uptake in anesthetized cynomolgus monkey brain thalamus after 9.5 mins postinjection; assay type: ADME, organism-based, Macaca fascicularis; design: unit not given here; settings: in vivo
[14] = test system: Putamen; test: Drug uptake in anesthetized cynomolgus monkey brain putamen after 27.5 mins postinjection; assay type: ADME, organism-based, Macaca fascicularis; design: unit not given here; settings: in vivo
[15] = Ratio of drug uptake in frontal lobe to cerebellum in anesthetized cynomolgus monkey after 195 mins postinjection; assay type: ADME, organism-based, Macaca fascicularis; settings: in vivo, 3.25 h
[16] = Drug uptake in anesthetized cynomolgus monkey brain frontal lobe after 95 mins postinjection; assay type: ADME, organism-based, Macaca fascicularis; settings: in vivo
[17] = test system: Caudate; test: Drug uptake in anesthetized cynomolgus monkey brain caudate after 55 mins postinjection; assay type: ADME, organism-based, Macaca fascicularis, Caudate nucleus; settings: in vivo
[18] = test system: Thalamus; test: Drug uptake in anesthetized cynomolgus monkey brain thalamus after 22.5 mins postinjection; assay type: ADME, organism-based, Macaca fascicularis; design: unit not given here; settings: in vivo, 0.375 h
[19] = Drug uptake in anesthetized cynomolgus monkey brain cerebellum after 6.5 mins postinjection; assay type: ADME, organism-based, Macaca fascicularis; settings: in vivo
[20] = Drug uptake in anesthetized cynomolgus monkey brain cerebellum after 215 mins postinjection; assay type: ADME, organism-based, Macaca fascicularis; settings: in vivo
[21] = Ratio of drug uptake in pons to cerebellum in anesthetized cynomolgus monkey after 1.5 mins postinjection; assay type: ADME, organism-based, Macaca fascicularis; settings: in vivo, 0.025 h
[22] = test system: Medulla; test: Drug uptake in anesthetized cynomolgus monkey brain medulla after 95 mins postinjection; assay type: ADME, organism-based, Macaca fascicularis; settings: in vivo
[23] = test system: Caudate; test: Drug uptake in anesthetized cynomolgus monkey brain caudate after 22.5 mins postinjection; assay type: ADME, organism-based, Macaca fascicularis, Caudate nucleus; settings: in vivo, 0.375 h
[24] = test system: Pons; test: Drug uptake in anesthetized cynomolgus monkey brain pons after 85 mins postinjection; assay type: ADME, organism-based, Macaca fascicularis; settings: in vivo
[25] = Ratio of drug uptake in caudate to cerebellum in anesthetized cynomolgus monkey after 9.5 mins postinjection; assay type: ADME, organism-based, Macaca fascicularis; settings: in vivo
[26] = test system: Midbrain; test: Drug uptake in anesthetized cynomolgus monkey brain midbrain after 175 mins postinjection; assay type: ADME, organism-based, Macaca fascicularis; settings: in vivo
[27] = Ratio of drug uptake in caudate to cerebellum in anesthetized cynomolgus monkey after 95 mins postinjection; assay type: ADME, organism-based, Macaca fascicularis; settings: in vivo
[28] = test system: Caudate; test: Drug uptake in anesthetized cynomolgus monkey brain caudate after 125 mins postinjection; assay type: ADME, organism-based, Macaca fascicularis, Caudate nucleus; settings: in vivo
[29] = test system: Midbrain; test: Drug uptake in anesthetized cynomolgus monkey brain midbrain after 27.5 mins postinjection; assay type: ADME, organism-based, Macaca fascicularis; design: unit not given here; settings: in vivo
[30] = test system: Caudate; test: Drug uptake in anesthetized cynomolgus monkey brain caudate after 65 mins postinjection; assay type: ADME, organism-based, Macaca fascicularis, Caudate nucleus; settings: in vivo
[31] = Ratio of drug uptake in thalamus to cerebellum in anesthetized cynomolgus monkey after 95 mins postinjection; assay type: ADME, organism-based, Macaca fascicularis; settings: in vivo
[32] = test system: Midbrain; test: Drug uptake in anesthetized cynomolgus monkey brain midbrain after 195 mins postinjection; assay type: ADME, organism-based, Macaca fascicularis; settings: in vivo, 3.25 h
[33] = test system: Pons; test: Drug uptake in anesthetized cynomolgus monkey brain pons after 95 mins postinjection; assay type: ADME, organism-based, Macaca fascicularis; settings: in vivo
[34] = Ratio of drug uptake in medulla to cerebellum in anesthetized cynomolgus monkey after 165 mins postinjection; assay type: ADME, organism-based, Macaca fascicularis; settings: in vivo, 2.75 h
[35] = test system: Medulla; test: Drug uptake in anesthetized cynomolgus monkey brain medulla after 165 mins postinjection; assay type: ADME, organism-based, Macaca fascicularis; settings: in vivo, 2.75 h
[36] = Ratio of drug uptake in midbrain to cerebellum in anesthetized cynomolgus monkey after 135 mins postinjection; assay type: ADME, organism-based, Macaca fascicularis; settings: in vivo, 2.25 h
[37] = test system: Midbrain; test: Drug uptake in anesthetized cynomolgus monkey brain midbrain after 1.5 mins postinjection; assay type: ADME, organism-based, Macaca fascicularis; design: unit not given here; settings: in vivo, 0.025 h
[38] = test system: Thalamus; test: Drug uptake in anesthetized cynomolgus monkey brain thalamus after 225 mins postinjection; assay type: ADME, organism-based, Macaca fascicularis; design: unit not given here; settings: in vivo, 3.75 h
[39] = test system: Pons; test: Drug uptake in anesthetized cynomolgus monkey brain pons after 75 mins postinjection; assay type: ADME, organism-based, Macaca fascicularis; settings: in vivo, 1.25 h
[40] = Ratio of drug uptake in frontal lobe to cerebellum in anesthetized cynomolgus monkey after 205 mins postinjection; assay type: ADME, organism-based, Macaca fascicularis; settings: in vivo
[41] = test system: Medulla; test: Drug uptake in anesthetized cynomolgus monkey brain medulla after 12.5 mins postinjection; assay type: ADME, organism-based, Macaca fascicularis; settings: in vivo
[42] = test system: Putamen; test: Drug uptake in anesthetized cynomolgus monkey brain putamen after 2.5 mins postinjection; assay type: ADME, organism-based, Macaca fascicularis; settings: in vivo
[43] = test system: Medulla; test: Drug uptake in anesthetized cynomolgus monkey brain medulla after 115 mins postinjection; assay type: ADME, organism-based, Macaca fascicularis; settings: in vivo
[44] = Ratio of drug uptake in frontal lobe to cerebellum in anesthetized cynomolgus monkey after 135 mins postinjection; assay type: ADME, organism-based, Macaca fascicularis; settings: in vivo, 2.25 h
[45] = test system: Putamen; test: Drug uptake in anesthetized cynomolgus monkey brain putamen after 65 mins postinjection; assay type: ADME, organism-based, Macaca fascicularis; design: unit not given here; settings: in vivo
[46] = Ratio of drug uptake in caudate to cerebellum in anesthetized cynomolgus monkey after 65 mins postinjection; assay type: ADME, organism-based, Macaca fascicularis; settings: in vivo
[47] = test system: Caudate; test: Drug uptake in anesthetized cynomolgus monkey brain caudate after 12.5 mins postinjection; assay type: ADME, organism-based, Macaca fascicularis, Caudate nucleus; settings: in vivo
[48] = Drug uptake in anesthetized cynomolgus monkey brain occipital lobe after 225 mins postinjection; assay type: ADME, organism-based, Macaca fascicularis; settings: in vivo, 3.75 h
[49] = Ratio of drug uptake in pons to cerebellum in anesthetized cynomolgus monkey after 0.5 mins postinjection; assay type: ADME, organism-based, Macaca fascicularis; settings: in vivo
[50] = Ratio of drug uptake in occipital lobe to cerebellum in anesthetized cynomolgus monkey after 105 mins postinjection; assay type: ADME, organism-based, Macaca fascicularis; settings: in vivo, 1.75 h
[51] = Ratio of drug uptake in medulla to cerebellum in anesthetized cynomolgus monkey after 0.5 mins postinjection; assay type: ADME, organism-based, Macaca fascicularis; settings: in vivo

Q: For `O=C(OCC[18F])C1C2CCC(CC1c1ccc(/C=C\I)cc1)N2` (stereo not given), which Drug uptake [1] is on record?
A: 4.13

Q: What about the Drug uptake [2] of the same molecule?
A: 4.11

Q: And the Drug uptake [3]?
A: 3.24

Q: What about the Drug uptake [4] of the same molecule?
A: 3.35

Q: What about the Drug uptake [5] of the same molecule?
A: 0.5

Q: What about the Drug uptake [6] of the same molecule?
A: 1.68

Q: And the Drug uptake [7]?
A: 3.05

Q: And the Drug uptake [8]?
A: 2.98

Q: What about the Drug uptake [9] of the same molecule?
A: 2.58

Q: What about the Ratio [10] of the same molecule?
A: 0.8

Q: And the Ratio [11]?
A: 1.8

Q: And the Drug uptake [12]?
A: 1.84

Q: And the Drug uptake [13]?
A: 2.06

Q: And the Drug uptake [14]?
A: 3.38

Q: What about the Ratio [15] of the same molecule?
A: 1.3

Q: And the Drug uptake [16]?
A: 2.03

Q: What about the Drug uptake [17] of the same molecule?
A: 2.73

Q: What about the Drug uptake [18] of the same molecule?
A: 2.9

Q: And the Drug uptake [19]?
A: 1.79

Q: What about the Drug uptake [20] of the same molecule?
A: 1.18

Q: And the Ratio [21]?
A: 0.6

Q: What about the Drug uptake [22] of the same molecule?
A: 3.88

Q: What about the Drug uptake [23] of the same molecule?
A: 2.05

Q: And the Drug uptake [24]?
A: 3.38

Q: And the Ratio [25]?
A: 0.7

Q: And the Drug uptake [26]?
A: 4.61

Q: What about the Ratio [27] of the same molecule?
A: 1.4

Q: What about the Drug uptake [28] of the same molecule?
A: 3.09

Q: What about the Drug uptake [29] of the same molecule?
A: 3.19

Q: What about the Drug uptake [30] of the same molecule?
A: 2.87

Q: And the Ratio [31]?
A: 1.9

Q: What about the Drug uptake [32] of the same molecule?
A: 4.56

Q: What about the Drug uptake [33] of the same molecule?
A: 3.5

Q: And the Ratio [34]?
A: 2.6

Q: What about the Drug uptake [35] of the same molecule?
A: 3.58

Q: And the Ratio [36]?
A: 2.8

Q: And the Drug uptake [37]?
A: 0.1

Q: What about the Drug uptake [38] of the same molecule?
A: 3.35

Q: What about the Drug uptake [39] of the same molecule?
A: 3.39

Q: And the Ratio [40]?
A: 1.4

Q: And the Drug uptake [41]?
A: 2.59

Q: What about the Drug uptake [42] of the same molecule?
A: 0.45

Q: What about the Drug uptake [43] of the same molecule?
A: 3.8

Q: For `O=C(OCC[18F])C1C2CCC(CC1c1cccc(/C=C\I)c1)N2` (stereo not given), which Drug uptake [1] is on record?
A: 4.91

Q: What about the Drug uptake [2] of the same molecule?
A: 3.74

Q: What about the Drug uptake [3] of the same molecule?
A: 2.37

Q: And the Drug uptake [4]?
A: 3.2

Q: What about the Drug uptake [5] of the same molecule?
A: 0.52

Q: What about the Drug uptake [6] of the same molecule?
A: 1.28

Q: And the Drug uptake [7]?
A: 3.39

Q: And the Drug uptake [8]?
A: 3.62

Q: And the Ratio [44]?
A: 1.1

Q: What about the Drug uptake [45] of the same molecule?
A: 4.36

Q: What about the Drug uptake [9] of the same molecule?
A: 3.67

Q: And the Ratio [10]?
A: 0.7

Q: And the Ratio [11]?
A: 1.4

Q: What about the Ratio [46] of the same molecule?
A: 1.1

Q: And the Drug uptake [12]?
A: 3.07

Q: And the Drug uptake [13]?
A: 3.01

Q: What about the Drug uptake [14] of the same molecule?
A: 4.16

Q: And the Drug uptake [47]?
A: 2.74

Q: What about the Drug uptake [16] of the same molecule?
A: 2.53

Q: What about the Drug uptake [48] of the same molecule?
A: 1.22

Q: And the Drug uptake [17]?
A: 3.72

Q: What about the Drug uptake [18] of the same molecule?
A: 3.88

Q: What about the Drug uptake [19] of the same molecule?
A: 2.98

Q: And the Drug uptake [20]?
A: 1.4

Q: What about the Drug uptake [22] of the same molecule?
A: 3.56

Q: And the Drug uptake [23]?
A: 3.32

Q: What about the Drug uptake [24] of the same molecule?
A: 3.13

Q: What about the Ratio [25] of the same molecule?
A: 0.7

Q: What about the Drug uptake [26] of the same molecule?
A: 3.46

Q: What about the Ratio [27] of the same molecule?
A: 1.3

Q: What about the Drug uptake [28] of the same molecule?
A: 3

Q: What about the Drug uptake [29] of the same molecule?
A: 4.71

Q: What about the Drug uptake [30] of the same molecule?
A: 3.67

Q: What about the Ratio [31] of the same molecule?
A: 1.5

Q: And the Drug uptake [33]?
A: 3.05

Q: What about the Ratio [34] of the same molecule?
A: 1.7

Q: And the Ratio [49]?
A: 1.7

Q: And the Drug uptake [35]?
A: 2.88

Q: What about the Ratio [50] of the same molecule?
A: 1

Q: What about the Ratio [36] of the same molecule?
A: 2

Q: What about the Drug uptake [37] of the same molecule?
A: 0.11

Q: What about the Drug uptake [38] of the same molecule?
A: 2.29

Q: What about the Drug uptake [39] of the same molecule?
A: 3.21

Q: What about the Drug uptake [41] of the same molecule?
A: 3.37

Q: What about the Drug uptake [42] of the same molecule?
A: 0.44

Q: And the Drug uptake [43]?
A: 3.43

Q: What about the Ratio [51] of the same molecule?
A: 1.6
